# Measured values from patent US20090175981A1, “COMPOSITIONS, METHODS AND USES FOR A NOVEL FAMILY OF PEPTIDES” (priority 2004, published 2009).
# “And” between values parts separate entries of the source, which are not always exact repeats. Equal entries are not always repeated. Marks after values point to notes of the source that are not given here.
# Assays:
# [1] = test system: Staphylococcal aureus; test: MIC determination assay / antibiotic activity of synthetic BT variants; type: cell-based; conditions: FIG. 6B
# Experimental: (§1) MIC determination assays. Staphylococcal aureus was grown to mid-log phase in LB at 37° C., and diluted by 500-fold with fresh LB and dispensed into 96-well micro-titer plates. Different concentrations of peptides were added, and the micro-titer plates were incubated at 37° C. with shaking. A minimal inhibition concentration (MIC) was determined as the lowest peptide concentration that produced a clear well. All experiments were performed in triplicates, and highly consistent MICs were obtained.
# [2] = test system: Gram-positive bacteria; test: In vitro antibacterial MIC, Gram-positive bacteria; type: cell-based; conditions: most Gram (+)
# Experimental: as §1
# (§2) For Gram (−) the following were the antimicrobial activities observed: E. coli: MIC>20 microgram/ml; Pseudomonas and Salmonella: MIC>100 microgram/ml.
# [3] = test system: E. coli; test: In vitro antimicrobial MIC, E. coli; type: cell-based
# Experimental: as §1, §2
# [4] = test system: Pseudomonas; test: In vitro antimicrobial MIC, Pseudomonas; type: cell-based
# Experimental: as §1, §2
# [5] = test system: Salmonella; test: In vitro antimicrobial MIC, Salmonella; type: cell-based
# Experimental: as §1, §2
# [6] = test system: S. cerevisiae; test: In vitro antifungal MIC; type: cell-based
# [7] = test system: Tetrahymena; test: In vitro anti-protozoal MIC; type: cell-based
# [8] = type: physicochemical; conditions: pH 1.0 plus 100° C. overnight
# [9] = test system: Broiler Chicken; test: Growth promoting battery Studies 1-1 and 1-2; type: in vivo
# [10] = test system: straight run broilers; test: Growth and feed conversion of 20-day old broilers in batteries, mash feed (Studies 2-1 and 2-2); type: in vivo, chicken
# Experimental: Briefly, the peptide was used in a semi-purified form to study the growth and feed conversion of […] old straight run broilers in batteries (Studies 2-1 and 2-2). Two amounts were tested against a feed control, peptide at 6 ppm and peptide at 12 ppm, 12 repetitions were carried out per treatment with 4 birds per pen. The diet used in the study was as follows.
# [11] = test system: straight run broilers; test: Growth and feed conversion of 3-wk old broilers in batteries, pelleted starter feed (Studies 3-1 and 3-2); type: in vivo, chicken
# Text: Eight (8) study repetitions per treatment were used, again with 4 birds per pen.
# [12] = test system: Broiler Chicken; test: Growth promoting Studies 4-1 and 4-2 with direct coccidial challenge; type: in vivo
# [13] = test system: broiler chickens; test: 42-day broiler floor pen trial with natural colibacillosis challenge; type: in vivo, chicken
# Experimental: A broiler floor pen trial to compare the performance of a new anti-microbial designated for this project as BT1583 alone and in combination with the widely used coccidiostat monensin (MON) to MON fed alone, MON in combination with the also widely used antimicrobial Bacitracin MD (BMD) and BMD alone.
# The following levels of each treatment were evaluated:
# The study design included 10 pens per treatment and 40 birds per pen housed on day of hatch. Two basal corn-soy based diets of decreasing protein (approximately 23 to 20%) and increasing metabolizable energy (approximately 1400 to 1455 kcal/lb) were used from Day 0 to 21 (starter feed) and Days 22 to 42 (grower feed), respectively. Treatment premixes were measured and blended into diets at required levels. Between days 0 and 21 mortality was less than 1% with all birds growing optimally and of high health across all groups.
# Beginning on study day 22, the study director modulated house temperature and air flow to mimic industry conditions conducive to outbreaks of colibacillosis within naïve broiler flocks. This was done to stimulate a natural challenge for this study. Mortality climbed to a house average of approximately 10% by Day 42. A majority of these deaths occurred in groups not receiving BT1583 or MON. Lesions were consistent with those of colibacillosis (air sac, pneumonia, peri-hepatitis, peri-carditis and extreme morbidity). All mortality was documented (weight at death and post-mortem observations). All birds and feeds were weighed at 42 days. All remaining birds were euthanized on Day 42 by asphyxiation with the carcasses submitted for rendering.
# The following variables were tested: Response Variables: Gain Per Bird, Feed Per Gain, Mortality (%), Adjusted Feed Per Gain. F test from One Way ANOVA with one blocking factor=location, at Day 42 using 0.05 level of significance.
# All Response Variables: LSD T-test procedure for pair-wise comparisons with Type 1 error of means when ANOVA F ratio is significant, overall significance level of 0.05 used. Lines below means (see Table 30, below) indicate groups with insignificant differences in means.
# Adjusted Feed/Gain: The total weight of mortality in each pen was added to the final live weight, that value reduced by subtracting the initial weight and then dividing that value into the Total feed consumed to calculate the Adjusted Feed/Gain.
# [14] = test system: food-producing animals; test: Growth promotion in food-producing animals (overall statement); type: in vivo, chicken; conditions: used to promote growth
# Text: Alternatively, but in no way limiting the present invention, the present invention may be used as an animal-use only antibiotic for bacterial infections.
# [15] = target: T1, carboxypeptidase Y (Saccharomyces cerevisiae, UniProt P00729)
# T1 sequence (P00729 112-532): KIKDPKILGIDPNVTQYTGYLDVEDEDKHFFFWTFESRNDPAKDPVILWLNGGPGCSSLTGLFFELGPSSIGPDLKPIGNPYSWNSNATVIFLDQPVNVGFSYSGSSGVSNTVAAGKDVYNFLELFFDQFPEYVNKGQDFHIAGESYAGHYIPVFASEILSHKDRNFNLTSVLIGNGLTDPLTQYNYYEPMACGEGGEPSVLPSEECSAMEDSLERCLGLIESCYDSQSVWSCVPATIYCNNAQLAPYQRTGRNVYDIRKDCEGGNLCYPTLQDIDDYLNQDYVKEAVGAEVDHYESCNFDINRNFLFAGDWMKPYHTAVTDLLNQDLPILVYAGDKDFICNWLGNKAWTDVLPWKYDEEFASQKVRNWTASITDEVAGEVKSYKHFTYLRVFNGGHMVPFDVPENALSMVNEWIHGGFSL
# [16] = BT1583 12 ppm, BMD 50 ppm, COB 90 ppm, alone or combined, pelleted feed
# [17] = Study 4-1, 24 ppm with direct coccidial challenge
# [18] = Study 4-2, 48 ppm with direct coccidial challenge
# [19] = MON 99 ppm, BT1583 12 ppm, BMD 55 ppm, alone or combined
substance,measurement,setting,value
Me2Bmt-L-dO-I-V-V-dK-V-dL-K-dY-L-V-CH2OH [BT1583],antibiotic activity,[1],full antibiotic activity
same,MIC,[2],1 microgram/ml
same,MIC,[3],> 20 microgram/ml
same,MIC,[4],> 100 microgram/ml
same,MIC,[5],> 100 microgram/ml
same,MIC,[6],50 microgram/ml
same,MIC,[7],25 microgram/ml
same,in vitro inactivation,[8],only known in vitro method to inactivate it is pH 1.0 plus 100 °C overnight
same,Additional weight gain (%),"[9]; Study 1-1, 10 ppm",17%
same,Feed conversion improvement (point),"[9]; Study 1-1, 10 ppm",7 point
same,Additional weight gain (%),"[9]; Study 1-2, 30 ppm",17%
same,Feed conversion improvement (point),"[9]; Study 1-2, 30 ppm",8 point
same,"20-day cumulative feed conversion rate, Mean",[10]; 6 ppm in mash feed,1.5065 and 1.506
same,"20-day cumulative weight gain, Mean",[10]; 6 ppm in mash feed,591.975
same,"20-day cumulative feed conversion rate, Mean",[10]; 12 ppm in mash feed,1.4959 and 1.496
same,"20-day cumulative weight gain, Mean",[10]; 12 ppm in mash feed,618.934
same,Additional weight gain (%),"[10]; Study 2-1, 6 ppm",6.7%
same,Feed conversion improvement (point),"[10]; Study 2-1, 6 ppm",9 point
same,Additional weight gain (%),"[10]; Study 2-2, 12 ppm",11%
same,Feed conversion improvement (point),"[10]; Study 2-2, 12 ppm",10 point
same,"20-day cumulative feed conversion rate, Mean",[11]; [16],1.3308
same,"21-day cumulative feed conversion rate, Estimated Marginal Mean",[11]; [16],1.331
same,"21-day cumulative weight gain, Mean",[11]; [16],831.7396 and 831.740
same,Additional weight gain (%),"[11]; Study 3-1, 12 ppm",16%
same,Feed conversion improvement (point),"[11]; Study 3-1, 12 ppm",9 point
same,Additional weight gain (%),"[11]; Study 3-2, 12 ppm with Coban",5.4%
same,Feed conversion improvement (point),"[11]; Study 3-2, 12 ppm with Coban (vs Coban alone)",9 point
same,Additional weight gain (%),[12]; [17],7.1%
same,Feed conversion improvement (point),[12]; [17],13 point
same,Additional weight gain (%),[12]; [18],9.3%
same,Feed conversion improvement (point),[12]; [18],17 point
same,efficacy against colibacillosis,"[13]; 3 to 4 week old naïve broiler chickens, simulated commercial conditions",highly effective
same,feed/gain advantage over monensin and BMD fed alone and in combination,[13]; Day 42,≥ 10 point
same,weight gain advantage over monensin and BMD fed alone and in combination,[13]; Day 42,≥ 20 point
same,Day 42 Feed/Gain,[13]; [19],1.722^ab
same,Day 42 Gain/Bird,[13]; [19],4.333^ab lb
same,Day 42 Mortality (%),"[13]; acute and chronic colibacillosis, MON 99 ppm, BT1583 12 ppm, BMD 55 ppm",2.75^a %
same,Day 42 Adjusted Feed/Gain,"[13]; adjusted for weight of mortality, MON 99 ppm, BT1583 12 ppm, BMD 55 ppm",1.704^ab
same,mortality rate compared with non-supplemented controls,[13]; alone or in combination,lower mortality rates
same,feed conversion gain,[14],about 10 points
same,cleavage by carboxypeptidase Y,[15],resistant
